This note sets out measurements from patent US6730669B2, “Amino acid hydroxyethylamino sulfonamide retroviral protease inhibitors” (G. D. Searle & Co., priority 1995, dated 2004).

One test concerns HIV-1. As to the kind of experiment: CEM cell assay: HIV inhibition assay of acutely infected cells (tetrazolium based colorimetric, MTT). The following applies: Human immunodeficiency virus 1, CCRF-CEM, 168 h; Table 21; CEM cells acutely infected with HIV-1, 7 days, MTT readout. Here is the method: The effectiveness of various compounds were determined in the above-described enzyme assay and in a CEM cell assay. The HIV inhibition assay method of acutely infected cells is an automated tetrazolium based colorimetric assay essentially that reported by Pauwles et al, J. Virol. Methods, 20, 309-321 (1988). Assays were performed in 96-well tissue culture plates. CEM cells, a CD4+cell line, were grown in RPMI-1640 medium (Gibco) supplemented with a 10% fetal calf serum and were then treated with polybrene (2 μg/ml). An 80 μl volume of medium containing 1×10^4 cells was dispensed into each well of the tissue culture plate. To each well was added a 100 μl volume of test compound dissolved in tissue culture medium (or medium without test compound as a control) to achieve the desired final concentration and the cells were incubated at 37° C. for 1 hour. A frozen culture of HIV-1 was diluted in culture medium to a concentration of 5×10^4 TCID50 per ml (TCID50=the dose of virus that infects 50% of cells in tissue culture), and a 20 μL volume of the virus sample (containing 1000 TCID50 of virus) was added to wells containing test compound and to wells containing only medium (infected control cells). Several wells received culture medium without virus (uninfected control cells). Likewise, the intrinsic toxicity of the test compound was determined by adding medium without virus to several wells containing test compound. In summary, the tissue culture plates contained the following experiments:
In experiments 2 and 4 the final concentrations of test compounds were 1, 10, 100 and 500 μg/ml. Either azidothymidine (AZT) or dideoxyinosine (ddI) was included as a positive drug control. […] DMSO was added to all control wells at an appropriate concentration.
Following the addition of virus, cells were incubated at 37° C. in a humidified, 5% CO2 atmosphere for 7 days. Test compounds could be added on days 0, 2 and 5 if desired. On day 7, post-infection, the cells in each well were resuspended and a 100 μl sample of each cell suspension was removed for assay. A 20 μL volume of a 5 mg/ml solution of 3-(4,5-dimethylthiazol-2-yl)-2,5-diphenyltetrazolium bromide (MTT) was added to each […] cell suspension, and the cells were incubated for 4 hours at […] in a 5% CO2 environment. […] To each sample was added 100 μl of 10% sodium dodecylsulfate in 0.01 N HCl to lyse the cells, and samples were incubated overnight. The absorbance at 590 nm was determined for each sample using a Molecular Devices microplate reader. Absorbance values for each set of wells is compared to assess viral control infection, uninfected control cell response as well as test compound by cytotoxicity and antiviral efficacy.

In the next test the target is T1, HIV protease (Human immunodeficiency virus type 1 group M subtype B, UniProt P04585).
T1 construct: HIV protease is diluted in the assay buffer to a final enzyme concentration of 12.3 nanomolar, based on a molecular weight of 10,780
As to the kind of experiment: HIV protease enzyme assay (fluorescence, substrate 2-Ile-Nle-Phe(p-NO2)-Gln-ArgNH2). The format is biochemical. The following applies: 12.3 nanomolar enzyme, pH 6.4. As to the method: The compounds of the present invention are effective HIV protease inhibitors. Utilizing an enzyme assay as described below, the compounds set forth in the examples herein disclosed inhibited the HIV enzyme. […] The enzyme method is described below. The substrate is 2-Ile-Nle-Phe(p-NO2)-Gln-ArgNH2. The positive control is MVT-101 (Miller, M. et al, Science, 246, 1149 (1989)] The assay conditions are as follows:
20 mM sodium phosphate, pH 6.4
The above described substrate is dissolved in DMSO, then diluted 10 fold in assay buffer. Final substrate concentration in the assay is 80 μM. HIV protease is diluted in the assay buffer to a final enzyme concentration of 12.3 nanomolar, based on a molecular weight of 10,780.
The final concentration of DMSO is 14% and the final concentration of glycerol is 18%. The test compound is dissolved in DMSO and diluted in DMSO to 10× the test concentration; 10 μl of the enzyme preparation is added, the materials mixed and then the mixture is incubated at ambient temperature for 15 minutes. The enzyme reaction is initiated by the addition of 40 μl of substrate. The increase in fluorescence is monitored at 4 time points (0, 8, 16 and 24 minutes) at ambient temperature. Each assay is carried out in duplicate wells.

By EC50 is commonly meant the concentration that produces a half-maximal response. Usually IC50 stands for the point on the concentration scale where inhibition reaches its midpoint. Read a high IC50 as weaker potency in that assay. For the molecule `COc1ccc(S(=O)(=O)N(CC(C)C)C[C@@H](O)[C@H](Cc2ccccc2)NC(=O)[C@@H](NC(=O)CN2CCCC2)C(C)C)cc1` [Entry 13], in the test on HIV-1, the EC50 amounted to 18 nM. Also, the IC50 on HIV protease (Table 21, 80 μM substrate) is 3 nM.

In the case of `CC(C)CN(C[C@@H](O)[C@H](Cc1ccccc1)NC(=O)[C@@H](NC(=O)CN1CCCC1)C(C)(C)S(C)(=O)=O)S(=O)(=O)c1ccc2c(c1)OCO2` [Entry 10], the EC50 in the test on HIV-1 was 39 nM. The IC50 on HIV protease (Table 21, 80 μM substrate) amounted to 4 nM. As for `COc1ccc(S(=O)(=O)N(CC(C)C)C[C@@H](O)[C@H](Cc2ccccc2)NC(=O)[C@@H](NC(=O)CN2CCCC2)C(C)(C)C)cc1` [Entry 5], in the test on HIV-1, the midpoint of the response, the EC50, lay at 5 nM. On HIV protease (Table 21, 80 μM substrate), this molecule showed an IC50 of 3 nM. `C#CC[C@H](NC(=O)CN1CCCC1)C(=O)N[C@@H](Cc1ccccc1)[C@H](O)CN(CC(C)C)S(=O)(=O)c1ccc2c(c1)OCO2` [Entry 12]: the midpoint of the response with HIV-1, the EC50, lay at 11 nM. The molecule also showed an IC50 on HIV protease (Table 21, 80 μM substrate) of 2 nM. At HIV protease (Table 20, 80 μM substrate), `CCC(C)[C@H](NC(=O)CN1CCCC1)C(=O)N[C@@H](Cc1ccccc1)[C@H](O)CN(CC(C)C)S(=O)(=O)c1ccc2c(c1)CCO2` (stereo partly shown) [Entry 2] had an IC50 of 2 nM. As to `CC(C)CN(C[C@@H](O)[C@H](Cc1ccccc1)NC(=O)[C@@H](NC(=O)CN1CCCC1)C(C)(C)C)S(=O)(=O)c1ccccc1` [Entry 4], a half-maximal response in the test with HIV-1 (EC50) required 12 nM. The same molecule gave an IC50 against HIV protease (Table 21, 80 μM substrate) of 4 nM.

Regarding `CC(C)CN(C[C@@H](O)[C@H](Cc1ccccc1)NC(=O)[C@H](CS(C)(=O)=O)NC(=O)CN1CCCC1)S(=O)(=O)c1ccc2c(c1)OCO2` [Entry 3], in the test with HIV-1, the midpoint of the response, the EC50, lay at 120 nM. The molecule further yielded a 50% inhibitory concentration (IC50) against HIV protease (Table 21, 80 μM substrate) of 8 nM. `CCC(C)[C@H](NC(=O)CN1CCCC1)C(=O)N[C@@H](Cc1ccccc1)[C@H](O)CN(CC(C)C)S(=O)(=O)c1ccc2c(c1)OCO2` (stereo partly shown) [Entry 2]: the midpoint of the response in the test on HIV-1, the EC50, lay at 12 nM. Moreover, the IC50 against HIV protease (Table 21, 80 μM substrate) is 3 nM. For `CC(C)CN(C[C@@H](O)[C@H](Cc1ccccc1)NC(=O)[C@@H](NC(=O)CN1CCCC1)C(C)C)S(=O)(=O)c1ccc2c(c1)OCO2` [Entry 6], the EC50 in the test with HIV-1 is 6 nM. At HIV protease (Table 21, 80 μM substrate), this molecule returned an IC50 of 3 nM. As for `CC(C)CN(C[C@@H](O)[C@H](Cc1ccccc1)NC(=O)[C@@H](NC(=O)CN1CCCC1)C(C)(C)C)S(=O)(=O)c1ccc2c(c1)CCO2` [Entry 11], in the test on HIV-1, the midpoint of the response, the EC50, lay at 21 nM. Besides, the IC50 at HIV protease (Table 21, 80 μM substrate) was determined as 4 nM. On to `CCC(C)[C@H](NC(=O)CN1CCCC1)C(=O)N[C@@H](Cc1ccccc1)[C@H](O)CN(CC(C)C)S(=O)(=O)c1ccccc1` (stereo partly shown) [Entry 1], for which it took 4 nM to reach half-maximal inhibition against HIV protease (Table 20, 80 μM substrate) (IC50). Turning to `CC(C)CN(C[C@@H](O)[C@H](Cc1ccccc1)NC(=O)[C@@H](NC(=O)CN1CCCC1)C(C)(C)C)S(=O)(=O)c1ccc2c(c1)OCO2` [Entry 1], it took 7 nM to reach a half-maximal effect in the test with HIV-1 (EC50). In addition, the IC50 on HIV protease (Table 21, 80 μM substrate) came to 3 nM. In the test on HIV-1, `COC(=O)Nc1nc2cc(S(=O)(=O)N(CC(C)C)C[C@@H](O)[C@H](Cc3ccccc3)NC(=O)[C@@H](NC(=O)CN3CCCC3)C(C)(C)C)ccc2[nH]1` [Entry 7] showed an EC50 of 29 nM. This molecule showed an IC50 at HIV protease (Table 21, 80 μM substrate) of 2 nM. Turning to `CC(C)CN(C[C@@H](O)[C@H](Cc1ccccc1)NC(=O)[C@@H](NC(=O)CN1CCCC1)C(C)(C)C)S(=O)(=O)c1ccc2ncsc2c1` [Entry 8], the EC50 with HIV-1 amounted to 16 nM. This molecule also returned an IC50 on HIV protease (Table 21, 80 μM substrate) of 3 nM.

In the test on HIV-1, `CCC(C)[C@H](NC(=O)CN1CCCC1)C(=O)N[C@@H](Cc1ccccc1)[C@H](O)CN(CC(C)C)S(=O)(=O)c1ccc(OC)cc1` (stereo partly shown) [Entry 9] showed an EC50 of 16 nM. The molecule further came in with an IC50 against HIV protease (Table 21, 80 μM substrate) of 3 nM.
